Measured values: article PMC12892976, “Alkylation-based optimization of antifungal FPPS inhibitors yields a potent, broad-spectrum lipophilic zoledronate derivative” (mBio, 2025)
Converted amounts (≈) assume the structure as drawn.

Tests used:
Cryptococcus gattii [1] = assay: MIC broth microdilution (CLSI); format: cell-based; details: Cryptococcus gattii PNG27
Experimental: (§1) Antifungal susceptibility was determined by broth microdilution according to the CLSI guidelines described in M27-Ed4 ([16]).

[2] = tested on: Cryptococcus bacillisporus; assay: MIC broth microdilution (CLSI); format: cell-based; details: Cryptococcus bacillisporus NIH179
Experimental: as §1

Pichia kudriavzevii = assay: MIC broth microdilution (CLSI); format: cell-based; details: Pichia kudriavzavii ATCC 6258
Experimental: (§2) Antifungal susceptibility was determined by broth microdilution according to the CLSI guidelines described in M27-Ed4 ([16]). […] MFC was determined by back-plating drug-treated cultures from MIC broths onto SDA plates. The MFC was defined as the lowest concentration from which no colonies could be cultured.

Candida parapsilosis [3] = assay: MIC broth microdilution (CLSI); format: cell-based; details: Candida parapsilosis ATCC 22018
Experimental: as §2

Candida tropicalis [4] = assay: MIC broth microdilution (CLSI); format: cell-based; details: Candida tropicalis M230640
Experimental: as §1

Aspergillus terreus = assay: MIC broth microdilution (CLSI); format: cell-based; details: Aspergillus terreus 75-16-089-2500
Experimental: as §1

Nannizzia nana [5] = assay: MIC broth microdilution (CLSI); format: cell-based; details: Nannizzia nana R-133
Experimental: as §1

Mucor circinelloides = assay: checkerboard drug interaction (FICI, MICc); format: cell-based;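 also: simplified diagonal checkerboard screen pairing antifungals with FPPS inhibitors, FICI calculated under the Loewe additivity model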
Experimental: (§3) Drug interactions between antifungals and FPPS inhibitors were investigated using a simplified checkerboard diagonal screening method ([45]). […] FICIs were determined according to the Loewe additivity model ([17]).

Rhizopus oryzae [6] = assay: checkerboard drug interaction (FICI, MICc); format: cell-based;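 also: simplified diagonal checkerboard screen pairing antifungals with FPPS inhibitors, FICI calculated under the Loewe additivity model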
Experimental: as §3

Cryptococcus gattii [7] = assay: checkerboard drug interaction (FICI, MICc); format: cell-based;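 also: simplified diagonal checkerboard screen pairing antifungals with FPPS inhibitors, FICI computed under the Loewe additivity model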
Experimental: as §3

[8] = tested on: Cryptococcus bacillisporus; assay: checkerboard drug interaction (FICI, MICc); format: cell-based;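 also: interaction of antifungals with FPPS inhibitors assessed by a simplified diagonal checkerboard screen, with FICI computed under the Loewe additivity model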
Experimental: as §3

[9] = tested on: Cryptococcus deneoformans; assay: checkerboard drug interaction (FICI, MICc); format: cell-based;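 also: simplified diagonal checkerboard screen pairing antifungals with FPPS inhibitors, FICI calculated under the Loewe additivity model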
Experimental: as §3

Candida auris = assay: checkerboard drug interaction (FICI, MICc); format: cell-based;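 also: simplified diagonal checkerboard screen pairing antifungals with FPPS inhibitors, with FICI computed under the Loewe additivity model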
Experimental: as §3

Candida parapsilosis [10] = assay: checkerboard drug interaction (FICI, MICc); format: cell-based;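 also: simplified diagonal checkerboard screen pairing antifungals with FPPS inhibitors, with FICI computed under the Loewe additivity model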
Experimental: as §3

Candida tropicalis [11] = assay: checkerboard drug interaction (FICI, MICc); format: cell-based;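 also: simplified diagonal checkerboard screen of antifungal plus FPPS inhibitor combinations, with FICI computed by the Loewe additivity model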
Experimental: as §3

Aspergillus udagawae = assay: checkerboard drug interaction (FICI, MICc); format: cell-based;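 also: simplified diagonal checkerboard screen pairing antifungals with FPPS inhibitors, FICI calculated using the Loewe additivity model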
Experimental: as §3

Aspergillus lentulus [12] = assay: checkerboard drug interaction (FICI, MICc); format: cell-based;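 also: simplified diagonal checkerboard screen pairing antifungals with FPPS inhibitors, with the interaction index calculated under the Loewe additivity model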
Experimental: as §3

Aspergillus felis [13] = assay: checkerboard drug interaction (FICI, MICc); format: cell-based;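 also: simplified diagonal checkerboard screen pairing antifungals with FPPS inhibitors, FICI calculated under the Loewe additivity model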
Experimental: as §3

Microsporum canis [14] = assay: checkerboard drug interaction (FICI, MICc); format: cell-based
Experimental: as §3

Nannizzia nana [15] = assay: checkerboard drug interaction (FICI, MICc); format: cell-based
Experimental: as §3

Trichophyton soudanense = assay: checkerboard drug interaction (FICI, MICc); format: cell-based;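 also: simplified diagonal checkerboard screen pairing antifungals with FPPS inhibitors, FICI computed under the Loewe additivity model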
Experimental: as §3

Aspergillus parafelis = assay: checkerboard drug interaction (FICI, MICc)
Experimental: as §3

[16] = tested on: Aspergillus frankstonensis; assay: checkerboard drug interaction (FICI, MICc);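 also: simplified diagonal checkerboard screen pairing antifungals with FPPS inhibitors, FICI calculated using the Loewe additivity model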
Experimental: as §3

[17] = tested on: Trichophyton interdigitale; assay: checkerboard drug interaction (FICI, MICc);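 also: simplified diagonal checkerboard screen pairing antifungals with FPPS inhibitors, FICI values calculated under the Loewe additivity model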
Experimental: as §3

Rhizopus oryzae [18] = assay: MIC broth microdilution (CLSI); format: cell-based; details: Rhizopus oryzae 04-14-364-1703
Experimental: as §1

Lomentospora prolificans = assay: MIC broth microdilution (CLSI); format: cell-based; details: Lomentospora prolificans 80-16-101-2445
Experimental: as §1

Scedosporium apiospermum = assay: MIC broth microdilution (CLSI); format: cell-based; details: Scedosporium apiospermum 04-16-022-2268
Experimental: as §1

Aspergillus niger = assay: MIC broth microdilution (CLSI); format: cell-based; details: Aspergillus niger 111
Experimental: as §1

Aspergillus lentulus [19] = assay: MIC broth microdilution (CLSI); format: cell-based; details: Aspergillus lentulus DTO 341-G7
Experimental: as §1

Aspergillus felis [20] = assay: MIC broth microdilution (CLSI); format: cell-based; details: Aspergillus felis IHE87256683D6
Experimental: as §1

[21] = tested on: Aspergillus frankstonensis; assay: MIC broth microdilution (CLSI); format: cell-based; details: Aspergillus frankstonensis DTO 341-F3
Experimental: as §1

Epidermophyton floccosum = assay: MIC broth microdilution (CLSI); format: cell-based; details: Epidermophyon floccosum R-113
Experimental: as §1

Paraphyton cookei = assay: MIC broth microdilution (CLSI); format: cell-based; details: Paraphyton cookei R-639
Experimental: as §1

Microsporum canis [22] = assay: MIC broth microdilution (CLSI); details: Microsporum canis R-232
Experimental: as §1

Trichophyton tonsurans = assay: MIC broth microdilution (CLSI); details: Trichophyton tonsurans R-168
Experimental: as §1

**Q.** For `OC(Cn1cncn1)(Cn1cncn1)c1ccc(F)cc1F` [FLC, fluconazole], which “MIC / MEC” value (Cryptococcus gattii [1]) is on record?
**A.** 2 µg/mL (≈ 6.53 µM)

**Q.** And the “MIC / MEC” value [2]?
**A.** 1 µg/mL (≈ 3.27 µM)

**Q.** What about the “MIC / MEC” value (Pichia kudriavzevii) of the same compound?
**A.** 32 µg/mL (≈ 104 µM)

**Q.** What about the “MIC / MEC” value (Candida parapsilosis [3]) of the same compound?
**A.** 2 µg/mL (≈ 6.53 µM)

**Q.** And the “MIC / MEC” value (Candida tropicalis [4])?
**A.** 16 µg/mL (≈ 52.2 µM)

**Q.** And the “MIC / MEC” value (Aspergillus terreus)?
**A.** 64 µg/mL (≈ 209 µM)

**Q.** And the “MIC / MEC” value (Nannizzia nana [5])?
**A.** 32 µg/mL (≈ 104 µM)

**Q.** And the “antifungal MICc” value (Mucor circinelloides; in combination with 10-ZOL)?
**A.** 32

**Q.** What about the “antifungal MICc” value (Mucor circinelloides; in combination with ZOL) of the same compound?
**A.** 32

**Q.** And the “antifungal MICc” value (Rhizopus oryzae [6]; in combination with 10-ZOL)?
**A.** 32

**Q.** What about the “antifungal MICc” value (Cryptococcus gattii [7]; in combination with 10-ZOL) of the same compound?
**A.** 1

**Q.** What about the “antifungal MICc” value (Cryptococcus gattii [7]; in combination with ZOL) of the same compound?
**A.** 0.25

**Q.** What about the “antifungal MICc” value ([8]; in combination with 10-ZOL) of the same compound?
**A.** 1

**Q.** And the “antifungal MICc” value ([8]; in combination with ZOL)?
**A.** 0.125

**Q.** And the “antifungal MICc” value ([9]; in combination with 10-ZOL)?
**A.** 0.25

**Q.** What about the “antifungal MICc” value ([9]; in combination with ZOL) of the same compound?
**A.** 0.125

**Q.** What about the “antifungal MICc” value (Candida auris; in combination with 10-ZOL) of the same compound?
**A.** 64

**Q.** And the “antifungal MICc” value (Candida auris; in combination with ZOL)?
**A.** 32

**Q.** And the “antifungal MICc” value (Candida parapsilosis [10]; in combination with 10-ZOL)?
**A.** 1

**Q.** What about the “antifungal MICc” value (Candida parapsilosis [10]; in combination with ZOL) of the same compound?
**A.** 0.25

**Q.** What about the “antifungal MICc” value (Candida tropicalis [11]; in combination with 10-ZOL) of the same compound?
**A.** 1

**Q.** And the “antifungal MICc” value (Candida tropicalis [11]; in combination with ZOL)?
**A.** 2

**Q.** What about the “antifungal MICc” value (Aspergillus udagawae; in combination with 10-ZOL) of the same compound?
**A.** 4

**Q.** What about the “antifungal MICc” value (Aspergillus lentulus [12]; in combination with 10-ZOL) of the same compound?
**A.** 4

**Q.** What about the “antifungal MICc” value (Aspergillus lentulus [12]; in combination with ZOL) of the same compound?
**A.** 64

**Q.** What about the “antifungal MICc” value (Aspergillus felis [13]; in combination with 10-ZOL) of the same compound?
**A.** 4

**Q.** What about the “antifungal MICc” value (Microsporum canis [14]; in combination with 10-ZOL) of the same compound?
**A.** 64

**Q.** What about the “antifungal MICc” value (Microsporum canis [14]; in combination with ZOL) of the same compound?
**A.** 32

**Q.** What about the “antifungal MICc” value (Nannizzia nana [15]; in combination with 10-ZOL) of the same compound?
**A.** 32

**Q.** And the “antifungal MICc” value (Nannizzia nana [15]; in combination with ZOL)?
**A.** 8

**Q.** And the “antifungal MICc” value (Trichophyton soudanense; in combination with 10-ZOL)?
**A.** 4

**Q.** What about the “antifungal MICc” value (Trichophyton soudanense; in combination with ZOL) of the same compound?
**A.** 64

**Q.** And the “antifungal MICc” value (Aspergillus parafelis; in combination with 10-ZOL)?
**A.** 4

**Q.** And the “antifungal MICc” value ([16]; in combination with 10-ZOL)?
**A.** 64

**Q.** What about the “antifungal MICc” value ([17]; in combination with 10-ZOL) of the same compound?
**A.** 32

**Q.** What does the source list for `C[C@@H]1[C@H](O)[C@@H](C)/C=C/C=C/C=C/C=C/C=C/C=C/C=C/[C@H](O[C@@H]2O[C@H](C)[C@@H](O)[C@H](N)[C@@H]2O)C[C@@H]2O[C@](O)(C[C@@H](O)C[C@@H](O)[C@H](O)CC[C@@H](O)C[C@@H](O)CC(=O)O[C@H]1C)C[C@H](O)[C@H]2C(=O)O` [AMB, amphotericin B]?
**A.** MIC / MEC (Rhizopus oryzae [18]): 0.13 µg/mL (≈ 0.141 µM); MIC / MEC (Cryptococcus gattii [1]): 0.25 µg/mL (≈ 0.271 µM); MIC / MEC [2]: 0.25 µg/mL (≈ 0.271 µM); MIC / MEC (Lomentospora prolificans): 16 µg/mL (≈ 17.3 µM); MIC / MEC (Scedosporium apiospermum): 8 µg/mL (≈ 8.66 µM); MIC / MEC (Pichia kudriavzevii): 0.5 µg/mL (≈ 0.541 µM); MIC / MEC (Candida parapsilosis [3]): 0.5 µg/mL (≈ 0.541 µM); MIC / MEC (Candida tropicalis [4]): 1 µg/mL (≈ 1.08 µM); MIC / MEC (Aspergillus niger): 0.13 µg/mL (≈ 0.141 µM); MIC / MEC (Aspergillus terreus): 1 µg/mL (≈ 1.08 µM); MIC / MEC (Aspergillus lentulus [19]): 4 µg/mL (≈ 4.33 µM); MIC / MEC (Aspergillus felis [20]): 4 µg/mL (≈ 4.33 µM); MIC / MEC [21]: 2 µg/mL (≈ 2.16 µM); MIC / MEC (Epidermophyton floccosum): 0.5 µg/mL (≈ 0.541 µM); MIC / MEC (Paraphyton cookei): 1 µg/mL (≈ 1.08 µM); MIC / MEC (Nannizzia nana [5]): 0.5 µg/mL (≈ 0.541 µM); antifungal MICc (Mucor circinelloides; in combination with 10-ZOL): 0.25; antifungal MICc (Mucor circinelloides; in combination with ZOL): 0.25; antifungal MICc (Rhizopus oryzae [6]; in combination with 10-ZOL): 0.13; antifungal MICc (Rhizopus oryzae [6]; in combination with ZOL): 0.13; antifungal MICc (Cryptococcus gattii [7]; in combination with 10-ZOL): 0.125; antifungal MICc (Cryptococcus gattii [7]; in combination with ZOL): 0.25; antifungal MICc ([8]; in combination with 10-ZOL): 0.125; antifungal MICc ([8]; in combination with ZOL): 1; antifungal MICc ([9]; in combination with 10-ZOL): 0.125; antifungal MICc ([9]; in combination with ZOL): 0.125; antifungal MICc (Candida auris; in combination with 10-ZOL): 1; antifungal MICc (Candida auris; in combination with ZOL): 2; antifungal MICc (Candida parapsilosis [10]; in combination with 10-ZOL): 0.5; antifungal MICc (Candida parapsilosis [10]; in combination with ZOL): 0.5; antifungal MICc (Candida tropicalis [11]; in combination with 10-ZOL): 0.5; antifungal MICc (Candida tropicalis [11]; in combination with ZOL): 1; antifungal MICc (Aspergillus udagawae; in combination with 10-ZOL): 0.25; antifungal MICc (Aspergillus udagawae; in combination with ZOL): 0.25; antifungal MICc (Aspergillus lentulus [12]; in combination with 10-ZOL): 1; antifungal MICc (Aspergillus lentulus [12]; in combination with ZOL): 2; antifungal MICc (Aspergillus felis [13]; in combination with 10-ZOL): 2; antifungal MICc (Aspergillus felis [13]; in combination with ZOL): 8; antifungal MICc (Microsporum canis [14]; in combination with 10-ZOL): 1; antifungal MICc (Microsporum canis [14]; in combination with ZOL): 0.5; antifungal MICc (Nannizzia nana [15]; in combination with 10-ZOL): 1; antifungal MICc (Nannizzia nana [15]; in combination with ZOL): 0.25; antifungal MICc (Trichophyton soudanense; in combination with 10-ZOL): 0.25; antifungal MICc (Trichophyton soudanense; in combination with ZOL): 0.5; MIC / MEC (Microsporum canis [22]): 1 µg/mL (≈ 1.08 µM); MIC / MEC (Trichophyton tonsurans): 0.13 µg/mL (≈ 0.141 µM); antifungal MICc (Aspergillus parafelis; in combination with 10-ZOL): 1; antifungal MICc (Aspergillus parafelis; in combination with ZOL): 4; antifungal MICc ([16]; in combination with 10-ZOL): 1; antifungal MICc ([16]; in combination with ZOL): 2; antifungal MICc ([17]; in combination with 10-ZOL): 0.25; antifungal MICc ([17]; in combination with ZOL): 1
